In data set [1] the target is T1, human calcitonin receptor (hCTR2) (Homo sapiens, UniProt P30988).
T1 construct: expressed in transfected cells
T1 sequence (P30988 25-474): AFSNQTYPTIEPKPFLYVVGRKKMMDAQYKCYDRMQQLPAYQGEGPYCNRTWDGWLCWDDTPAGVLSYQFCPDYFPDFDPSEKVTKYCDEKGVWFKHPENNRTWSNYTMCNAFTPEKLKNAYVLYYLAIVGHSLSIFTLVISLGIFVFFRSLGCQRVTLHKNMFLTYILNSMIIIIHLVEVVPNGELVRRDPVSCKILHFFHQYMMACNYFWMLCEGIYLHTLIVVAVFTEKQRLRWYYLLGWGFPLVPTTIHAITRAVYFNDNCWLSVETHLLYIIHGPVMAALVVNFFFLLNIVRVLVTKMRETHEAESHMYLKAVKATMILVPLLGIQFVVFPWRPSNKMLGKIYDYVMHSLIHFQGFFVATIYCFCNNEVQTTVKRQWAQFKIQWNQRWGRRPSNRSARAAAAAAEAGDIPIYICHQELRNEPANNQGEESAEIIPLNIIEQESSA
The data set can be described thus: hCTR2 assay: induction of cAMP (AlphaScreen cAMP Assay kit) in COS7 cells expressing hCTR2. In kind it is cell-based. Summed up: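 COS7 stable hCTR2 clone (RAMP-free); peptide dose-response 15 min 37° C in Tyrode pH 7.4 + 100 µM IBMX + 0.1% casein; lysis 10 min RT; AlphaScreen cAMP; 4PL fit.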

Data set [2] in a line: Solubility assessment (turbidity absorbance at 325 nm). In kind it is physicochemical. To be noted: stock 2 mg/ml diluted 1:1, ambient temperature (typically 25°C), n=1. Summed up:
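Stock 2 mg/ml peptide, H2O/HCl pH 2.5; 1:1 into 100 mM buffers: acetate pH 4.0/5.0, His pH 6.0/7.0, phosphate pH 6.0/7.0/7.5. A280 + A325, ~25°C, n=1. Soluble ≥ 1 mg/ml if A325 ≤ 0.02.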

For data set [3], the target named is T2, human amylin receptor 3 (hAMYR3) consisting of hCTR2 co-expressed with human Receptor Activity Modifying Protein 3 (hRAMP3) (Homo sapiens, UniProt O60896+P30988).
T2 construct: expressed in transfected cells
T2 sequence (P30988 25-474): T1 sequence (P30988 25-474)
T2 sequence (O60896 24-148 partner): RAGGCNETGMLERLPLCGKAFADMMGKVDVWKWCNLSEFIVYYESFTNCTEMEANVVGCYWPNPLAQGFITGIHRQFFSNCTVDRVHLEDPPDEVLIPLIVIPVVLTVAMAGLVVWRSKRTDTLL
Kind of data set: hAMYR3 assay: induction of cAMP (AlphaScreen cAMP Assay kit) in COS7 cells expressing hAMYR3. In kind it is cell-based. An outline of the steps: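 Stable COS7 clone co-expressing hCTR2 and hRAMP3, stimulated 15 min at 37° C with increasing peptide in Tyrode buffer pH 7.4 with 100 µM IBMX and 0.1% casein. cAMP measured by AlphaScreen after lysis; EC50 and % efficacy versus pramlintide from 4PL fit.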
In general terms: Bead proximity is the source of the signal in Alpha formats.

The text below walks through data of patent EP3046573B1, “AMYLIN ANALOGUES” (Zealand Pharma A/S, priority 2013, dated 2015).

Numbered stars: 1 amine (or outer) side, 2 acyl side, 3 side chain; on linkers, the order of the positions; unused ones are H or OH. Bridge positions count the residues as written; N and C are the ends. Square brackets hold non-standard residues; d marks the D form. Peptide text beside a SMILES is read from it. * marks the point of attachment. Pro(trans-4-Ph) = O=C(O)[C@@H]1C[C@@H](c2ccccc2)CN1; C20 diacid = O=C(O)CCCCCCCCCCCCCCCCCCC(=O)*; γGlu = O=C(O)[C@H](CCC(=O)[*:2])N[*:1]; NMeI = CC[C@H](C)[C@H](NC)C(=O)O; Sar = CNCC(=O)O

In general, EC50 refers to the concentration that produces a half-maximal response. `CC[C@H](C)[C@@H](C(=O)N[C@@H](CC(C)C)C(=O)N[C@@H](CO)C(=O)N[C@@H](CO)C(=O)N[C@H](C(=O)N[C@@H](CC(N)=O)C(=O)N[C@H](C(=O)NCC(=O)N[C@@H](CO)C(=O)N[C@@H](CC(N)=O)C(=O)N[C@H](C(=O)N1C[C@H](c2ccccc2)C[C@H]1C(N)=O)[C@@H](C)O)C(C)C)[C@@H](C)O)N(C)C(=O)[C@H](C)NC(=O)CN(C)C(=O)[C@H](Cc1ccccc1)NC(=O)[C@H](CC(N)=O)NC(=O)[C@H](CC(N)=O)NC(=O)[C@H](CO)NC(=O)[C@H](CO)NC(=O)[C@H](CCCNC(=N)N)NC(=O)[C@H](Cc1c[nH]cn1)NC(=O)[C@H](CC(C)C)NC(=O)[C@H](Cc1ccccc1)NC(=O)[C@H](CCC(=O)O)NC(=O)[C@H](C)NC(=O)[C@H](CC(C)C)NC(=O)[C@H](CCCNC(=N)N)NC(=O)[C@H](CCC(N)=O)NC(=O)[C@@H](NC(=O)[C@H](C)NC(=O)[C@@H]1CSSC[C@H](NC(=O)[C@H](CCCNC(=N)N)NC(=O)CC[C@H](NC(=O)CCCCCCCCCCCCCCCCCCC(=O)O)C(=O)O)C(=O)N[C@@H](CC(N)=O)C(=O)N[C@@H]([C@@H](C)O)C(=O)N[C@@H](C)C(=O)N[C@@H]([C@@H](C)O)C(=O)N1)[C@@H](C)O` [Compound 112, [19CD]-isoGlu-RC()NTATC()ATQRLAEFLHRSSNNF-Gly(Me)-A-Ile(Me)-LSSTNVGSNT-Php-NH2] ({C20 diacid-γGlu}-RCNTATCATQRLAEFLHRSSNNF[Sar]A[NMeI]LSSTNVGSNT[Pro(trans-4-Ph)]-NH2; disulfide 2-7): the EC50 in data set [1] was found to be 0.16 nM; in data set [3], 0.15 nM. The “Solubility, Acetate buffer pH 4” value in data set [2] (100 mM acetate buffer pH 4.0) is on record as “SS (SS indicates solubility ≥ 1mg/ml)”. Besides, in data set [2] (100 mM acetate buffer pH 5.0), the “Solubility, Acetate buffer pH 5” value is recorded as “SS (SS indicates solubility ≥ 1mg/ml)”. The “Solubility, Histidine buffer pH 6” value in data set [2] (100 mM histidine buffer pH 6.0) is “SS (SS indicates solubility ≥ 1mg/ml)”. In addition, in data set [2] (100 mM histidine buffer pH 7.0), the “Solubility, Histidine buffer pH 7” value is recorded as “II (II indicates solubility ≤ 1 mg/ml)”. The “Solubility, Phosphate buffer pH 6” value in data set [2] (100 mM phosphate buffer pH 6.0) is listed as “II (II indicates solubility ≤ 1 mg/ml)”. Also, the “Solubility, Phosphate buffer pH 7” value in data set [2] (100 mM phosphate buffer pH 7.0) is listed as “SS (SS indicates solubility ≥ 1mg/ml)”. Besides, the “Solubility, Phosphate buffer pH 7.5” value in data set [2] (100 mM phosphate buffer pH7.5) is recorded as “II (II indicates solubility ≤ 1 mg/ml)”.
